Patent publication US20060110376A1, “MDA-7 and free radicals in the treatment of cancer” (priority 2002, published 2006)

How the values were obtained:
[1] = system: RCC cell lines A498 and UOK121N; experiment: Cell death (Giemsa staining, trypan blue); type: cell-based, human; conditions: 10 mM N-acetyl cysteine 1 h before As2O3
Method: Cells were plated in 6 well plates (˜5×10^4 cells/well) and 24 h later treated with GST, GST-MDA-7 (both 0.5 nM) and As2O3 (0.5 μM) as indicated. Where indicated, cells were pre-treated with 10 mM N-acetyl cysteine 1 h prior to addition of As2O3. Cells were isolated 96 h after GST-MDA-7 treatment. Cell death was determined on isolated fixed cells by Giemsa staining for apoptosis and necrosis (presented as a single value) as described (30). Panel A. UOK121N cells. Panel B. A498 cells. […]
Assessment of Apoptosis and Cell Death. […] For each condition, 10 randomly selected fields per slide were evaluated, encompassing at least 15000 cells (Dai et al., 2002, Cell Cycle 1:143-152; Qiao et al., 2001, Mol. Biol. Cell 12:2629-2645). To confirm the results of morphologic analysis, in some cases cells were also evaluated by TUNEL staining and oligonucleosomal DNA fragmentation assay as follows; staining, cytospin slides were fixed with 4% formaldehyde/PBS for 10 min, treated with acetic acid/ethanol (1:2) for 5 min, and incubated with terminal transferase reaction mixture containing 1× terminal transferase reaction buffer, […] terminal transferase, 2.5 mM CoCl2, and 2 pmol fluorescein-12-dUTP (Boehringer Mannheim, Indianapolis, Ind.) at 37° C. for 1 h. […]
Assessment of Cell Viability. […] Cells (˜400) were counted in all four fields of a hemocytometer.

[2] = system: renal carcinoma cells (UOK121N, A498); experiment: Clonogenic survival assay; type: cell-based, human; conditions: arsenic trioxide (0.5 μM) alone
Method: Panel A. UOK121N cells. Panel B. A498 cells. Cells were plated in 6 well plates (˜5×10^4 cells/well) and 24 h later treated with GST, GST-MDA-7 (both 0.5 nM) and As2O3 (0.5 μM) as indicated. Cells were isolated 96 h after GST-MDA-7 treatment and cell viability determined using trypan blue exclusion assay (see FIG. 28). Based on trypan blue negative viable cell values, 250, 500 and 2000 viable cells were re-plated in Linbro plates. The plating density for colony formation assays depended upon the prior treatment of the cells and data obtained in FIGS. 27 and 28. 10-14 days after plating, cells were fixed and stained with crystal violet. Colony formation was determined using visual counting, and a colony was defined as a group of >50 cells. Data are the means of 3 separate experiments (±SEM). * p<0.05 less than control cells; # p<0.05 less than As2O3 or GST-MDA-7 treated cells.
Cell Survival Analyses. Cells were assayed for the effect(s) of GST-MDA-7 and arsenic trioxide on cell survival. Cells were plated (10,000 cells per 60 mm dish) and 24 h after plating treated with GST-MDA-7 or GST. Thirty minutes later, cells were treated with arsenic trioxide. Ninety-six hours later, cells were isolated by trypsinization and viable trypan blue negative cells re-plated in 60 mm dishes at 250-1,000 cells per plate. […] Colonies that contain more than 50 cells were then counted. […]

[3] = system: A498, UOK121N and primary renal epithelial cells; experiment: MTT cell growth assay, arsenic trioxide alone; type: cell-based, human
Method: FIG. 26. Arsenic trioxide causes a concentration-dependent reduction in primary and renal carcinoma cell growth. Cells were plated in 12 well plates (˜1×10^4 cells/well) and 24 h later treated with increasing concentrations of As2O3 as indicated. Cell growth was determined via MTT assay 96 h after GST-MDA-7 treatment. Data are the means of 12 wells (one plate per condition, ±SEM) from a representative experiment using separate As2O3 formulations (n=3). Arsenic trioxide caused a dose-dependent enhancement in cell killing at higher concentrations >10 μM.
MTT Assay for Determination of Cellular Viability. The MTT test is based on the enzymatic reduction of the tetrazolium salt MTT in living, metabolically active cells but not in dead cells. Cells were plated (5-10,000 cells per well of a 12 well plate) and 24 h after plating treated with either GST or GST-MDA-7 at the indicated concentrations. Thirty minutes after protein treatment, cells were treated with arsenic trioxide at the indicated concentrations. The cytotoxicity of the various treatments was assessed four days after irradiation by measurement of cell viability by use of the MTT assay, as described previously (McKinstry et al., 2002, Cancer Biol. Ther. 1:243-253). The plates were read on a Dynatech MR600 Microplate Reader at 540 nm. […]

[4] = system: normal cells (immortalized human astrocytes or melanocytes); experiment: MTT viability assay; type: cell-based; conditions: Ad.mda-7 100 p.f.u./cell
Method: MTT Viability Assays. Cell viability was assessed by MTT assays as described (Lebedeva et al., 2000, Cancer Research 60:6052-6060). Briefly, cells were seeded in 96-well tissue culture plates (1.5×10^3 cells per well) and treated with various agents. At the indicated times, medium was removed, and fresh medium containing 0.5 mg/ml MTT was added to each well. The cells were incubated at 37° C. for 4 h and then an equal volume of solubilization solution (0.01N HCl in 10% SDS) was added to each well and mixed thoroughly. The optical density from the plates was read on a BioRad Microplate Reader Model 550 at 595 nm.

Molecule | effect of N-acetyl-cysteine on cell killing by GST-MDA-7 + arsenic trioxide [1] | clonogenicity [2] | concentrations giving dose-dependent enhancement in cell killing [3] [µM] | concentration above which proliferation was dose-dependently reduced ([3]; 96 h) | growth, combinational treatment with Ad.mda-7 [4]
CC(=O)N[C@@H](CS)C(=O)O [NAC, N-acetyl-cysteine] | significantly reduced cell killing |  |  |  | 
arsenic trioxide |  | significantly reduced clonogenicity | > 10 | above 1 μM | does not affect growth of normal cells
